# Source: paper PMC6767236, “Selective Cannabinoid 2 Receptor Agonists as Potential Therapeutic Drugs for the Treatment of Endotoxin-Induced Uveitis” (Molecules, 2019)
# Experiments:
# [1] = in vivo; conditions: for AUCINF D: mouse, i.v., HU308 2 mg/kg, RO6871304 0.5 mg/kg
# Method: Mouse Pharmacokinetic Profiles
# Male C57Bl/6 mice (Charles River, Fra nce) were used to study the pharmacokinetics of CB 2R ligands after i.v. and p.o. administration. Animals were up to 12 weeks of age. All animal studies in this section were performed at Hoffmann-La Roche and approved by the Federal Food Safety and Veterinary Office of the Swiss Confederation. Test compounds were formulated according to respective protocols either by dissolution (i.v.) or as aqueous suspensions in a glass potter until homogeneity was achieved (p.o.; formulated as a solution in ethanol/cremophor EL/ 0.9% NaCl (5%/5%/90%)). Formulations were injected i.v. using a 30G needle in the lateral tail vein of mice using a volume of 50 μL in the dose indicated. For p.o. applications, animals were gavaged using a volume of 100 μL in the dose indicated. At the following time points blood was drawn into EDTA: 0.08, 0.25, 0.5, 1, 2, 4, 7 h (for p.o. the first time point was omitted). Six animals were used for each compound.
# Animals were distributed randomly over the time course and at each time point, a volume of 100 μL of blood was taken. Quantitative plasma measurement of the compound was performed by LC-MS/MS analysis. Pharmacokinetic analysis was performed using Phoenix WinNonlin 6.4 software using a non-compartmental approach consistent with the route of administration. For assessment of the exposure, Cmax, Tmax, and area under the curve (AUC) were determined from the serum concentration profiles. Parameters (clearance, […], T1/2) were estimated using nominal sampling times relative to the start of each administration. Co (initial concentration) was extrapolated from the first concentration measured following i.v. administration. […]
# [2] = design: method as in earlier work; conditions: * previously published; cited from earlier work
# [3] = molecular target: T1, human CB2R (Homo sapiens, UniProt P34972); assay: Radioligand binding assay, human CB2R ([3H]-CP55940)
# T1 construct: bgal (beta-galactosidase fragment of the PathHunter system, named only in the cell line's name); host or cells: CHO-K1 (CHOK1hCB2_bgal)
# Method: Membrane fractions were prepared from cultured CHOK1hCB1_bgal, CHOK1hCB2_bgal, and CHOK1mCB2_bgal cells (DiscoveRx, Fremont, CA, USA) as previously described. Protein concentration was determined using the Pierce bicinchoninic acid (BCA) protein assay (Rochford, IL, USA) as per the manufacturer’s instructions.
# Radio ligand-binding assays were carried out as described by Souethoudt et al. (2018). Briefly, membranes from cells expressing human CB2R or CB1R or mouse CB2R and the radioligand, [^3H]-CP55940 (Perkin Elmer, Basel, Switzerland) was used. […] Membrane aliquots containing 5 µg (CHOK1hCB1_bgal) or 1 µg (CHOK1hCB2_bgal) of membrane protein in 100 µL assay buffer (50 mMTris-HCl, 5 mM MgCl2, 0.1% bovine serum albumin (BSA), pH 7.4) were incubated at 30 °C for 1 h, in presence of 3.5 nM of [^3H]-CP55940 (CHOK1hCB1_bgal) or 1.5 nM [^3H]-CP55940 (CHOK1hCB2_bgal). The incubation was terminated by rapid filtration performed on glass microfibre (GF/C) filters (Whatman International, Maidstone, UK), presoaked for 30 min with 0.25% polyethyleneimine (PEI), and using a Brandel harvester (Brandel, Gaithersburg, MD, USA). Filter-bound radioactivity was determined by scintillation spectrometry using a Tri-Carb 2900 TR liquid scintillation counter (Perkin Elmer, Boston, MA, USA). […] In all receptor binding experiments, nonspecific binding was determined in the presence of 1 µM “cold” agonist.
# [4] = test system: neutrophils from WT mice; assay: Transwell neutrophil migration assay towards CXCL2, WT neutrophils; type: cell-based, mouse; conditions: for CXCL2-induced neutrophil migration: WT neutrophils pre-treated 30 min, 10 nM CXCL2, RO6851228 at 0.01–1.0 μM
# Method: As described previously, mouse neutrophils were isolated from the bone marrow of mice. Mice were euthanized, femur and tibia were dissected and flushed with ice-cold 1× Hanks balanced salt solution (HBSS; supplemented with […], pH7.5, and 0.5 mM EDTA; Invitrogen) through a sterile filter (70 μm). The suspension was centrifuged at 300× g for 12 min at 4 °C. EasySep™ neutrophil enrichment kit ([…] Technologies Inc., Vancouver, BC, Canada) was used to isolate neutrophils according to the manufacturer’s instructions. The isolated neutrophils were then washed once and the pelleted cells were suspended in RPMI (Invitrogen) containing 1% heat-inactivated fetal bovine serum (FBS, Invitrogen) and used immediately for neutrophil migration experiments or processed for adoptive transfer. The murine neutrophil isolation protocol routinely yields cell suspensions that are >95% pure and viable, as determined by cresyl violet and trypan blue exclusion, respectively.
# Neutrophil migration assays were performed using a Transwell migration assay. Isolated neutrophils (1 × 10^5 cells/100 μL) from WT or CB2R^-/- mice were incubated with vehicle (0.01% DMSO), or various concentrations of RO8671304 or RO6851228 at 37 °C, 5% CO2 for 30 min. Cells were then loaded into the upper chamber of 3 μm Transwell inserts (Corning Life Sciences, Corning, NY, USA) coated with 5% FBS. Transwells were placed in 24-well plates containing RPMI (1% FBS) alone or 10^−8 M chemokine C–X–C motif ligand 2 (CXCL2)/[…] (Peprotech, Rocky Hill, NJ, USA). Plates were incubated for 1 h at 37 °C, 5% CO2. To determine the number of neutrophils that migrated from the top to the bottom chamber, the filter was removed and neutrophils in the lower chamber gently pipetted to evenly distribute and sink to the bottom of the pate. An Olympus inverted bright-field microscope with an Infinity 3 camera (Lumenera, Ottawa, ON, Canada) was used to photograph 12 random fields (10× magnification) of each well. The number of migrated neutrophils was then determined using ImageJ. […]
# [5] = male, C57Bl/6, mouse, in vivo, iv
# [6] = male, C57Bl/6, mouse, in vivo, iv, 2 mg/kg
# T1 sequence (P34972 whole entry, the tested form may be a part): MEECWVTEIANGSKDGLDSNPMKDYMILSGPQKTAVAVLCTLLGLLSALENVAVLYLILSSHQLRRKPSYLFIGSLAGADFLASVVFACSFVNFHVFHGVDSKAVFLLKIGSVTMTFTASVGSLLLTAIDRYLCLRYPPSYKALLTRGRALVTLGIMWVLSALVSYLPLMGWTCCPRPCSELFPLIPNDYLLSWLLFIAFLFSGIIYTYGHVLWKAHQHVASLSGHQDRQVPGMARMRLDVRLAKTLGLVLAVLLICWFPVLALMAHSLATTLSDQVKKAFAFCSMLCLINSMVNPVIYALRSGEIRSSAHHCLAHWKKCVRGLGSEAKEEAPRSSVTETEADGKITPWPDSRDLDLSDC
Structure (SMILES),"half-life [1, 5]",AUCINF D [1],Plasma Protein Binding: FREE Fraction mouse [2],CXCL2-induced neutrophil migration [4],further results
"CCCCCCC(C)(C)c1cc(OC)c([C@H]2C=C(CO)[C@H]3C[C@@H]2C3(C)C)c(OC)c1 [HU308, {(1S,4S,5S)-4-[2,6-Dimethoxy-4-(2-methyloctan-2-yl)phenyl]-6,6-dimethylbicyclo[3.1.1]hept-2-en-2-yl}methanol, reference compound]",2.15 h,456 ng·kg·h/mL/mg,,,"Vd [1, 6]: 2.9 L/kg; clearance [1, 6]: 36.6 mL/min/kg"
"CCCCCCC(C)(C)c1cc(OC)c(C2=C[C@H]3CC[C@]2(CO)C3(C)C)c(OC)c1 [HU910, {(1S,4R)-2-[2,6-dimethoxy-4-(2-methyloctan-2-yl)phenyl]-7,7-dimethylbicyclo[2.2.1]hept-2-en-1-yl}methanol, reference compound]",,,4.1%,,hCB1R Ki/hCB2R Ki [3]: 89
"CNC(=O)[C@@H](NC(=O)c1cc(OCC2(C)COC2)c(C2CC2)cn1)C(C)(C)C [RO6851228, 5-Cyclopropyl-N-[(2S)-3,3-dimethyl-1-(methylamino)-1-oxobutan-2-yl]-4-[(3-methyloxetan-3-yl)methoxy]pyridine-2-carboxamide]",,,,did not affect CXCL2-induced neutrophil migration,
"Cc1nc([C@](C)(CC2CC2)NC(=O)c2cc(OCC(F)(F)F)c(C3CC3)cn2)no1 [RO6871085, 5-Cyclopropyl-N-[(2S)-1-cyclopropyl-2-(5-methyl-1,2,4-oxadiazol-3-yl)propan-2-yl]-4-(2,2,2-trifluoroethoxy)pyridine-2-carboxamide]",,,0.9%,,
"CC(C)(C)c1nc(N2CC[C@H](O)C2)c2nnn(Cc3nnnn3C3CC3)c2n1 [RO6871304, (3S)-1-{5-tert-butyl-3-[(1-cyclopropyl-1H-tetrazol-5-yl)methyl]-3H-[1,2, 3]triazolo[4,5-d]pyrimidin-7-yl}pyrrolidin-3-ol]",0.32 h,456 ng·kg·h/mL/mg,,inhibited neutrophil migration towards CXCL2 in a dose-dependent fashion,"IC50 ([4]; Neutrophil, towards 10 nM CXCL2, WT mouse neutrophils, read-out: IC50 for inhibition of neutrophil migration): 6.6 nM; Ki ([3]; [3H]-CP55940 displacement, read-out: hCB2R: Ki): 17 nM"
